Here are results for 2 substances from patent US20220211821A1, “COMPOSITION FOR PREVENTING OR TREATING OBESITY, COMPRISING PHOSPHOLIPASE A2 AS ACTIVE INGREDIENT” (UNIVERSITY-INOUSTRY COOPERATION GROUP OF KYUNG HEE …, priority 2019, published 2022).

One data set relates to mice of the HFD group. Description: Comparison with mellitin: body weight changes in HFD mice. The class given is in vivo. As to conditions: 0.5 mg/kg intraperitoneally for 16 weeks, vs control group (PBS). Here is the method:
In order to investigate a component having an excellent obesity inhibitory effect among the components of bee venom, mellitin, which is the most abundant in bee venom, was compared with bvPLA2, which is PLA2 derived from bee venom.
More specifically, the mice of the ND and HFD groups were intraperitoneally administered with PBS, mellitin, and bvPLA2 at 0.5 mg/kg each for 16 weeks, and then the body weight changes were compared every day.

Data set [1] has as its system mice with HFD-induced obesity. Description: Adipose tissue weight and body weight of mice with HFD-induced obesity. The class given is in vivo, C57BL/6 mice. As to the method:
(§1) Male C57BL/6 mice (5 weeks old; weight 18-20 g) and CD206−/− mice (B6.129P2-MRC1tm1Mnz/J) were purchased from Jackson Laboratory (Bar Harbor, Me.). After acclimation for one week, the mice were fed a normal diet (ND, 10 kcal %) or a high-fat diet (HFD, 60 kcal %) for 15 weeks. Thereafter, the mice were intraperitoneally injected with PBS or bvPLA2 (0.5 mg/kg) starting on week 5 and continuing for 11 weeks.
The obesity amelioration effect of bvPLA2 was evaluated through changes in adipose tissue weight and body weight of mice with HFD-induced obesity.
More specifically, the […] mice were fed ND or HFD for 15 weeks. After 4 weeks of ND or HFD feeding, the mice were injected with PLA2 or PBS, starting on week 5 (FIG. 1A). Thereafter, the adipose tissue and body weight were measured according to the injection or non-injection of bvPLA2.

Data set [2] deals with HFD-induced metabolic dysfunction. Kind of data set: Serum/plasma levels of liver, kidney and metabolic markers by group. The class given is in vivo, mice. As to the method: The effects of bvPLA2 on liver and kidney functions were investigated.
More specifically, serum levels of alanine aminotransferase (ALT), aminotransferase (AST), blood urea nitrogen (BUN), and […] (Crea) were measured for each group.
In order to investigate the effect of bvPLA2 on metabolic syndrome, the triglyceride (TG), glucose (GLU), high-density lipoprotein cholesterol (HDL-C), and low-density lipoprotein cholesterol (LDL-C) levels were analyzed for each group.
In addition, plasma insulin and leptin levels were analyzed for each group.

Data set [3] has as its system CD206-deficient (CD206-/-) mice lacking the mannose receptor. Kind of data set: Body weight and adipose tissue weight of CD206-deficient mice on HFD. Format: in vivo. As to conditions: HFD+PLA2 vs HFD group. As to the method: as §1
In order to investigate the immunoregulatory effect of bvPLA2, CD206-deficient (CD206−/−) mice lacking the mannose receptor were used.
More specifically, the body weight and adipose tissue weight of CD206−/− mice were measured by way of the same method as the above experimental schedule (FIG. 1A).

Data set [4] concerns liver and kidney tissues from the mice. Kind of data set: H&E staining of liver and kidney: HFD-induced hepatic steatosis and kidney damage. The class given is in vivo. Here is the method: (§2) Liver and kidney tissues were fixed in 4% paraformaldehyde overnight, dehydrated, embedded in paraffin, and sectioned to a thickness of 4 μm. The sections were deparaffinized with xylene and then hydrated again with 100%, 90%, 80%, and 70% ethanol. The hydrated sections were washed with tap water and stained with a hematoxylin solution for 5 minutes. Thereafter, the stained sections were immersed in 1% acid alcohol, and then stained again in an eosin solution for 3 minutes. Thereafter, for mounting, the stained sections were dehydrated with 70%, 80%, 90%, or 100% ethanol […].
In order to investigate whether PLA2 alleviated HFD-induced hepatic steatosis and kidney inflammation, liver and kidney tissues from the mice were H&E stained.
Next, the glomerular diameter indicating an early indicator of diabetic nephropathy caused by kidney damage was investigated.

For data set [5], the system named is white adipose tissue (WAT). Kind of data set: Quantitative real-time PCR of M1/M2 markers and adipogenic factors in white adipose tissue. The class given is in vivo, mice. As to the method: Total RNA was isolated from white adipose tissue (WAT) samples by using an easy-BLUE RNA extraction kit (iNtRON Biotechnology, Korea), and cDNA was synthesized using Cyclescript reverse transcriptase (Bioneer, Korea). The synthesized cDNA was subjected to quantitative real-time PCR (95° C. for 15 sec, 55° C. for 10 sec, and 72° C. for 10 sec) with SensiFAST SYBR no-Rox kit (Bioline, Korea), and each reaction was performed in triplicate. The primer sequences for the experiment were as follows:
The changes in macrophage phenotypes were analyzed by quantitative real-time PCR analysis.
More specifically, the expressions of TNF-α, IL-1β, and IL-12a were measured to investigate the effect of bvPLA2 on M1-related markers.
In addition, the expressions of the M2-related markers IL-4, CD206, and Ym1 were measured.
In addition, the expressions of PPARγ, C/EBPα, and UCP-1, which are markers related with lipid accumulation and adipogenesis, were measured.
A general note: In qPCR the cycle at which signal appears reflects the starting amount.

In data set [6] the test system is pro-inflammatory macrophages in WAT. Description: H&E histological examination of macrophage infiltration in WAT. The class given is in vivo, mice. As to conditions: bvPLA2-treated HFD+PLA2 group vs HFD group. Here is the method: as §2
Since obesity is characterized by the localization of crown-like structures (CLS), which are formed by pro-inflammatory macrophages surrounding dead adipocytes in AT28, H&E histological examination was performed to investigate whether bvPLA2 inhibited the macrophage infiltration in WAT.

Data set [7] concerns obesity-induced mice, regulatory T cell depletion. Kind of data set: Body weight of obesity-induced mice with regulatory T cell depletion (anti-mouse CD25 PC61) or rat IgG control. Format: in vivo. Here is the method: Anti-mouse CD25 (clone: PC61) was produced from hybridomas obtained from the American Type Culture Collection (ATCC; Manassas, Va., USA), and the mice were intraperitoneally injected with anti-mouse CD25 or rat IgG (Sigma-Aldrich) every 3 days for 11 weeks.
In order to investigate the correlation between bvPLA2 and regulatory T cells, regulatory T cell depletion was performed by injecting anti-mouse CD25 antibody (clone PC61) into mice every 3 days. Rat IgG was used as a control.

Setting [8] is: bvPLA2-treated HFD group vs HFD group.
Setting [9] is: serum, HFD+PLA2 group vs HFD group.
Setting [10] is: M1-related marker, HFD+PLA2 group vs HFD group.
Setting [11] is: M2-related marker, HFD-PLA2 group vs HFD group.
The mark [12] stands for this setting: lipid accumulation/adipogenesis marker, HFD+PLA2 group vs HFD group.

Regarding mellitin [reference compound], in the data set on mice of the HFD group, the body weight change result was “increase in body weight”.

In the case of phospholipase A2 [bvPLA2], in data set [1] (HFD+PLA2 group vs HFD group), the “epididymal WAT weight” value is “greatly reduced” and the “inguinal WAT weight” value is “greatly reduced”. The body weight result in data set [1] (HFD+PLA2 group vs HFD group without PLA2, 0.5 mg/kg intraperitoneally from week 5) is “significant reduction in body weight”. For the same substance, the food uptake result in data set [1] (all groups (ND, HFD, with or without PLA2)) is recorded as “no food uptake change was observed”. In addition, in data set [2] (HFD+PLA2 group vs HFD group), the plasma insulin level result is “significantly reduced” and the plasma leptin level result was “significantly reduced”. In data set [2] (setting [8]), the “serum ALT level” value is given as “reduced”, the “serum AST level” value is “reduced” and the “serum Crea level” value is recorded as “reduced”. Besides, in data set [2] (setting [9]), the GLU level entry is given as “significantly reduced”, the HDL-C level entry was “significantly reduced”, the LDL-C level result was “significantly reduced” and the TG level entry is “significantly reduced”. In addition, in data set [3], the adipose tissue weight entry was “no significant changes” and the body weight result is listed as “no significant changes”. Besides, in the data set on mice of the HFD group, the body weight change entry is recorded as “decrease in body weight”. Moreover, the “kidney hypertrophy (increased glomerular diameter)” value in data set [4] (HFD+PLA2 group) is “no kidney hypertrophy”. Also, in data set [4] (ND+PLA2 group), the “kidney hypertrophy (increased glomerular diameter)” value is “no kidney hypertrophy”; the “size and weight of the liver (lipid droplet accumulation and hepatomegaly)” value is on record as “no influence was observed”. In data set [4] (setting [8]), the “size and weight of the liver (lipid droplet accumulation and hepatomegaly)” value is “attenuated”. In data set [5] (HFD+PLA2 group vs HFD group), the UCP-1 expression result is recorded as “significantly increased”. Moreover, in data set [5] (setting [10]), the IL-1β expression entry was “inhibited to levels similar to those in ND”, the IL-12a expression entry is “inhibited to levels similar to those in ND” and the TNF-α expression entry is given as “inhibited to levels similar to those in ND”. In data set [5] (setting [11]), the CD206 expression entry is recorded as “significantly increased” and the IL-4 expression entry is recorded as “significantly increased”. For the same substance, in data set [5] (setting [12]), the C/EBPα expression result is recorded as “inhibited” and the PPARγ expression result is listed as “inhibited”. Besides, in data set [6], the “CLS formation in AT” value was “reduced” and the “macrophage infiltration in AT” value was “reduced”. The body weight result in data set [7] (IgG+PLA2 obesity-induced group vs IgG-only obesity-induced group) is reported as “significantly reduced”. For the same substance, the body weight entry in data set [7] (PC61+PLA2 group vs PC61-treated group) was “markedly reduced”.
